The test system of one data set is K562 cells. The data set is described as follows: Cell viability of K562 cells treated for γ-globin expression study. Format: cell-based. The settings on record: about 48 hours, about 0.3 μM. As for the experimental part:
The synthesized modified FK228 analogues of the present invention were assessed to examine their capability to induce γ-globin expression. K562 cells were treated with the synthesized modified FK228 analogues at various concentrations (e.g., between about 0.01 nM and about 10 μM) for about 48 hours and expression of γ-globin was determined by real-time PCR as well as checking cell viability.

A further data set concerns prostate cancer cells. It is filed as cell-based, human. As for the experimental part:
(§1) To evaluate anti-tumoral activity of the modified FK228 analogues, human transitional carcinoma cell lines T24, TCCSUP, 253J and human prostate cancer cell lines PC-3, LNCaP, Du-145 were cultured in T medium (Invitrogen) supplemented with 5% fetal bovine serum and 1% penicillin-streptomycin. 2×10^3 Cells in 50 μL of medium were plated into each well of a 96-well plate one day before adding compound. Each compound was diluted with DMSO to two folds of the concentrations, then 50 μL of the compound-containing medium was added into cells. Each treatment was in triplicate. Three days later, cell proliferation was measured with a cell proliferation kit (Roche). Briefly, 10 μL of MTT (3-[4,5-dimethylthiazol-2-yl]-2,5-diphenyl tetrazolium bromide) was added into each well for 4 hours, then 100 μL of the solubilization solution was added and cells were incubated for overnight. The spectrophotometrical absorbance of the samples was measured with a SpectraMax M5 plate reader (Molecular Devices) at 565 nm. The data were presented as percentage inhibition using non-treated cells as control.
FIGS. 9-11 are graphs showing dose-dependent growth inhibition of cancer cells (prostate and bladder cancers) by modified FK228 analogues. […] FIG. 10 includes the general structure in FIG. 10A including R groups. The R groups are defined in FIG. 10B and growth inhibition for the specific composition depicted in FIG. 10B are shown in FIG. 10C. […] Similarly, FIG. 11 includes the general structure in FIG. 1A including R groups. The R groups are defined in FIG. 1B and growth inhibition for the specific composition depicted in FIG. 10B are shown in FIG. 1C. […] FIG. 11A is a structure of the modified FK228 analogues and the side chain functional groups of the structure in FIG. 11A is shown in FIG. 11B. FIG. 11C is a graph of the activity as a function of side chain seen in FIG. 11B.

Data set [1] deals with 3 prostate and 3 bladder cancer cells. The experiment in a line: MTT cell proliferation assay on a variety of cancer cells (FIG. 10). Format: cell-based, human. As for the experimental part: as §1
FIGS. 9-11 are graphs showing dose-dependent growth inhibition of cancer cells (prostate and bladder cancers) by modified FK228 analogues. […] FIG. 10 includes the general structure in FIG. 10A including R groups. […]
For orientation: Tetrazolium assays rely on reduction of a dye to a coloured formazan, in cell work by metabolically active cells.

Starred links: 1 amine or outer side, 2 acyl side, 3 side chain; linkers in the order of their positions; H or OH if unused. Positions of bridges follow the written chain, without caps; N, C: chain ends. Non-standard residues stand in square brackets, D forms with d. Residues, ends and D or L forms follow the SMILES beside them. 1Nal = N[C@@H](Cc1cccc2ccccc12)C(=O)O; 2Nal = N[C@@H](Cc1ccc2ccccc2c1)C(=O)O; Cysteamide = C(CS[*:3])N[*:1]

On to `CC(/C=C/C(=O)NO)=C\[C@@H](C)C(=O)c1ccc(N(C)C)cc1` [TSA, Trichostatin A], for which the cell viability in the data set on K562 cells is 30-40%.

The term GI50 denotes the concentration that inhibits growth by half. `CC(C)[C@H]1NC(=O)C[C@@H]2NC(=O)[C@H](Cc3ccccc3)NC(=O)[C@H](Cc3ccc4ccccc4c3)NC(=O)[C@@H](CSSCCNC2=O)NC1=O` [JMA46] ([dV][dC][2Nal]FD-Cysteamide; disulfide 2-C; lactam N-5) gave a concentration for 50% growth inhibition (GI50) in the data set with prostate cancer cells of 170 nM.

As to `CC(C)[C@H]1NC(=O)C[C@@H]2NC(=O)[C@H](Cc3ccc4ccccc4c3)NC(=O)[C@H](Cc3ccc4ccccc4c3)NC(=O)[C@@H](CSSCCNC2=O)NC1=O` [JMA33] ([dV][dC][2Nal][2Nal]D-Cysteamide; disulfide 2-C; lactam N-5), halving of growth with prostate cancer cells (GI50) required 33 nM.

The molecule `CC(C)[C@H]1NC(=O)C[C@@H]2NC(=O)[C@H](Cc3ccccc3)NC(=O)[C@H](Cc3ccccc3)NC(=O)[C@@H](CSSCCNC2=O)NC1=O` [JMA26] ([dV][dC]FFD-Cysteamide; disulfide 2-C; lactam N-5) registered a GI50 with prostate cancer cells of 460 nM. Moreover, the “cytotoxicity on a variety of cancer cells” value in data set [1] was “high cytotoxicity”.

In the data set with prostate cancer cells, `CC(C)[C@H]1NC(=O)C[C@@H]2NC(=O)[C@H](Cc3cccc4ccccc34)NC(=O)[C@H](Cc3cccc4ccccc34)NC(=O)[C@@H](CSSCCNC2=O)NC1=O` [JMA47] ([dV][dC][1Nal][1Nal]D-Cysteamide; disulfide 2-C; lactam N-5) yielded a GI50 of 47 nM.

The record behind these values is patent US8034768B2, “Composition and method for the treatment of diseases affected by histone deacetylase inhibitors” (Board of Regents, The University of Texas System, priority 2007, dated 2011).
